Tests used:
Conditions in all cases: 72 h
Calu-3 [1] = experiment: drug sensitivity score (DSS) for viability; higher = more toxic; extreme values may be limits of the assay
Vero E6 [2] = experiment: as above
Caco-2 [3] = experiment: as above
U2OS [4] = experiment: as above
HepG2 [5] = experiment: as above
Vero E6 [6] = experiment: cell viability relative to DMSO; higher = less toxic
Caco-2 [7] = experiment: as above
U2OS [8] = experiment: as above
Calu-3 [9] = experiment: as above
HepG2 [10] = experiment: as above
Caco-2 [11] = experiment: relative viability EC50 (midpoint between 100% and the lowest measured viability); higher = less toxic
U2OS [12] = experiment: as above
Calu-3 [13] = experiment: as above
Vero E6 [14] = experiment: as above

| Structure (SMILES) | drug sensitivity score (Calu-3 [1]) | drug sensitivity score (Vero E6 [2]) | drug sensitivity score (Caco-2 [3]) | drug sensitivity score (U2OS [4]) | drug sensitivity score (HepG2 [5]) | cell viability (Vero E6 [6]; 1 nM) | cell viability (Vero E6 [6]; 10 nM) | cell viability (Vero E6 [6]; 100 nM) | cell viability (Vero E6 [6]; 1000 nM) | cell viability (Vero E6 [6]; 10000 nM) | cell viability (Caco-2 [7]; 1 nM) | cell viability (Caco-2 [7]; 10 nM) | cell viability (Caco-2 [7]; 100 nM) | cell viability (Caco-2 [7]; 1000 nM) | cell viability (Caco-2 [7]; 10000 nM) | cell viability (U2OS [8]; 1 nM) | cell viability (U2OS [8]; 10 nM) | cell viability (U2OS [8]; 100 nM) | cell viability (U2OS [8]; 1000 nM) | cell viability (U2OS [8]; 10000 nM) | cell viability (Calu-3 [9]; 1 nM) | cell viability (Calu-3 [9]; 10 nM) | cell viability (Calu-3 [9]; 100 nM) | cell viability (Calu-3 [9]; 1000 nM) | cell viability (Calu-3 [9]; 10000 nM) | cell viability (HepG2 [10]; 1 nM) | cell viability (HepG2 [10]; 10 nM) | cell viability (HepG2 [10]; 100 nM) | cell viability (HepG2 [10]; 1000 nM) | cell viability (HepG2 [10]; 10000 nM) | relative viability EC50 (Caco-2 [11]) | relative viability EC50 (U2OS [12]) | relative viability EC50 (Calu-3 [13]) | relative viability EC50 (Vero E6 [14]) |
| --- | --- | --- | --- | --- | --- | --- | --- | --- | --- | --- | --- | --- | --- | --- | --- | --- | --- | --- | --- | --- | --- | --- | --- | --- | --- | --- | --- | --- | --- | --- | --- | --- | --- | --- |
| Nc1ccc(S(=O)(=O)Nc2ncccn2)cc1 [sulfadiazine] | 0.1 | – | – | – | – | – | – | – | – | – | – | – | – | – | – | – | – | – | – | – | – | – | – | – | – | – | – | – | – | – | – | – | – | – |
| O=C1NC(=O)/C(=C/c2ccc3nccc(-c4ccncc4)c3c2)S1 | 5.6 | 3.9 | 4.2 | 4.8 | 3.6 | 93.6% | 99.1% | 89.9% | 90.5% | 53.5% | 92.9% | 96.2% | 89.3% | 95.5% | 36% | 96.1% | 95.5% | 100% | 91.7% | 37.9% | 103% | 101% | 97.8% | 89.1% | 31.4% | 95.1% | 105% | 94.9% | 93% | 53.8% | 2.6 µM | 2.09 µM | 1.94 µM | – |
| CCCCNNC(=O)c1ccc(Br)cc1 [UF-010] | 2.4 | 1.2 | 0.3 | 1.3 | 3.6 | 104% | 98.9% | 101% | 102% | 69.6% | 99.5% | 91.9% | 92.8% | 101% | 84.3% | 100% | 104% | 100% | 99.8% | 70.2% | 101% | 98.2% | 96.8% | 95.6% | 64.2% | 106% | 94% | 105% | 88% | 61.5% | > 10 µM | – | – | – |
| O=c1[nH]cc(F)c(=O)[nH]1 [5-fluorouracil] | 0 | 2.5 | 1.4 | 2.4 | 4.7 | 102% | 95.7% | 106% | 95.8% | 62.9% | 80% | 103% | 85.7% | 93.4% | 79.6% | 100% | 97.4% | 97.6% | 95.6% | 64% | 93.5% | 99.2% | 98.1% | 101% | 90.5% | 103% | 93% | 103% | 83.7% | 54.4% | > 10 µM | – | > 10 µM | – |
| C#C[C@]1(O)CC[C@H]2[C@@H]3CCC4=CC(=O)CC[C@@H]4[C@H]3CC[C@@]21CC [norgestrel] | 0 | 0 | – | 0 | 0 | – | – | – | – | – | – | – | – | – | – | – | – | – | – | – | – | – | – | – | – | – | – | – | – | – | – | – | – | – |
| C[C@H](N/C(=N/C#N)Nc1cccc2ncccc12)c1ccccc1 | 0 | – | 0 | 0 | – | – | – | – | – | – | 101% | 112% | 104% | 97.8% | 98.6% | 108% | 102% | 99.1% | 109% | 101% | 97% | 102% | 107% | 103% | 94.8% | – | – | – | – | – | > 10 µM | > 10 µM | > 10 µM | – |
| CS(=O)(=O)Nc1c(O)ccc2c1CCC[C@H]2C1=NCCN1 | – | – | 0 | – | – | – | – | – | – | – | 109% | 104% | 101% | 101% | 96.7% | – | – | – | – | – | – | – | – | – | – | – | – | – | – | – | > 10 µM | – | – | – |
| Nn1cnc2cc3ccccc3cc2c1=O [centazolone] | 0 | 0 | – | – | 0 | – | – | – | – | – | – | – | – | – | – | – | – | – | – | – | – | – | – | – | – | – | – | – | – | – | – | – | – | – |
| CC(OC(=O)OC1CCCCC1)OC(=O)C1=C(CSc2nnnn2CCN(C)C)CS[C@@H]2[C@H](NC(=O)Cc3csc(N)n3)C(=O)N12 (stereo not given in full) [cefotiam-cilexetil] | 0 | – | 0 | 0 | – | – | – | – | – | – | 82.3% | 93.3% | 96.8% | 113% | 117% | 96.5% | 102% | 98.4% | 99.5% | 94.8% | 96.4% | 90% | 99.1% | 96.9% | 109% | – | – | – | – | – | > 10 µM | > 10 µM | > 10 µM | – |
| CCCCC1CCC(c2nc(-c3ccncc3)no2)CC1 (stereo not given) | – | – | 0 | – | – | – | – | – | – | – | 106% | 98.8% | 104% | 98.7% | 103% | – | – | – | – | – | – | – | – | – | – | – | – | – | – | – | > 10 µM | – | – | – |
| Cc1cc2c(cc1C(F)(F)F)N(C(=O)Nc1ccc(Oc3cccnc3C)nc1)CC2 | 0.4 | – | 0 | 0 | – | – | – | – | – | – | 97.3% | 101% | 104% | 97.1% | 91.2% | 101% | 106% | 95.8% | 105% | 95.4% | 96.4% | 98.8% | 96% | 104% | 80.6% | – | – | – | – | – | > 10 µM | > 10 µM | > 10 µM | – |
| Nc1nnc(-c2cccc(Cl)c2Cl)c(N)n1 [lamotrigine] | 0 | – | – | 0 | – | – | – | – | – | – | – | – | – | – | – | – | – | – | – | – | – | – | – | – | – | – | – | – | – | – | – | – | – | – |
| CC1=C(/C=C/C(C)=C/C=C/C(C)=C/CO)C(C)(C)CCC1 [retinol] | 0 | – | 0 | 0 | – | – | – | – | – | – | 108% | 89.4% | 96.7% | 97.8% | 93.2% | 102% | 96.9% | 102% | 96.8% | 103% | 90.6% | 103% | 101% | 91.7% | 99.5% | – | – | – | – | – | > 10 µM | > 10 µM | > 10 µM | – |
| O=C(c1ccccc1)C(O)c1ccccc1 (stereo not given) [benzoin] | 0 | 0 | – | 0 | 0.3 | – | – | – | – | – | – | – | – | – | – | – | – | – | – | – | – | – | – | – | – | – | – | – | – | – | – | – | – | – |
| CC(C)(C)c1ccc(-c2nc3c(N4CCN(Cc5ccc6nccnc6c5)CC4)cccc3[nH]2)cc1 | 0 | 2.4 | 2 | 2.4 | 1.9 | 102% | 105% | 103% | 95.6% | 64.5% | 109% | 91.7% | 90.3% | 100% | 59.7% | 92.8% | 101% | 93.4% | 99.2% | 54.8% | 104% | 104% | 111% | 106% | 92.1% | 98.3% | 96.5% | 94.4% | 97.7% | 66.9% | – | – | > 10 µM | – |
| Cc1ccc(NC(=O)CCCCCC(=O)Nc2ccccc2N)cc1 [TC-H-106] | 3.4 | 0.6 | 0.9 | 1.1 | 3.3 | 105% | 102% | 98.2% | 102% | 77.6% | 103% | 97% | 97.6% | 96.2% | 81.9% | 101% | 96.4% | 98.4% | 95.7% | 80.3% | 98.5% | 99.7% | 92.9% | 87.4% | 59.4% | 99.7% | 109% | 98.9% | 93.4% | 57.3% | > 10 µM | > 10 µM | – | > 10 µM |
| NS(=O)(=O)c1cc2c(cc1Cl)NC(C(Cl)Cl)NS2(=O)=O (stereo not given) [trichlormethiazide] | 0 | 0 | – | 0 | 1.4 | – | – | – | – | – | – | – | – | – | – | – | – | – | – | – | – | – | – | – | – | – | – | – | – | – | – | – | – | – |
| CCNCCCNCCCCNCCCNCC [1,12-Besm] | 0.1 | 1.7 | 3.2 | 1.3 | 4.7 | 101% | 104% | 99.4% | 97.5% | 70.5% | 103% | 86.3% | 96.5% | 91.7% | 61.8% | 102% | 96.1% | 96.6% | 89.5% | 79.1% | 95.6% | 110% | 110% | 102% | 86.7% | 104% | 104% | 106% | 86.7% | 50.5% | – | > 10 µM | > 10 µM | – |
| O=C(Nc1cccc2cccnc12)c1ccc(N2C(=O)[C@@H]3[C@H](C2=O)[C@H]2C=C[C@@H]3C2)cc1 [exo-IWR-1] | 0 | 0 | 0 | 0 | 0.5 | 94.2% | 93.1% | 92.2% | 97.1% | 106% | 92.2% | 100% | 103% | 102% | 106% | 99.1% | 104% | 99.6% | 108% | 104% | 87.4% | 103% | 107% | 103% | 102% | 105% | 99.3% | 103% | 87.9% | 92% | – | – | – | – |
| CCCCCCCCCCCCCCOc1ccc(C(=O)O)o1 [KD-023] | – | 0.8 | 1.1 | 0 | 1 | 102% | 102% | 100% | 99% | 78.4% | 95% | 92.9% | 105% | 92.5% | 82.5% | 97.4% | 97.4% | 101% | 95.8% | 103% | – | – | – | – | – | 99.8% | 103% | 103% | 105% | 69.9% | > 10 µM | > 10 µM | – | > 10 µM |

Reference: the supplement of paper PMC13380429
